Results taken from paper PMC8397297 (ACS Chemical Neuroscience, 2021).

Key:
mGAT4 = target: T1, mGAT4 (Mus musculus, UniProt P31650); experiment: [3H]GABA uptake assay in HEK-293 cells stably expressing mGAT4; assay type: cell-based; settings: [3H]GABA uptake; read-out: pIC50 ± SEM mGAT4 (converted)
T1 construct: expressed in transfected cells; host or cells: HEK-293
T1 sequence (P31650 1-627): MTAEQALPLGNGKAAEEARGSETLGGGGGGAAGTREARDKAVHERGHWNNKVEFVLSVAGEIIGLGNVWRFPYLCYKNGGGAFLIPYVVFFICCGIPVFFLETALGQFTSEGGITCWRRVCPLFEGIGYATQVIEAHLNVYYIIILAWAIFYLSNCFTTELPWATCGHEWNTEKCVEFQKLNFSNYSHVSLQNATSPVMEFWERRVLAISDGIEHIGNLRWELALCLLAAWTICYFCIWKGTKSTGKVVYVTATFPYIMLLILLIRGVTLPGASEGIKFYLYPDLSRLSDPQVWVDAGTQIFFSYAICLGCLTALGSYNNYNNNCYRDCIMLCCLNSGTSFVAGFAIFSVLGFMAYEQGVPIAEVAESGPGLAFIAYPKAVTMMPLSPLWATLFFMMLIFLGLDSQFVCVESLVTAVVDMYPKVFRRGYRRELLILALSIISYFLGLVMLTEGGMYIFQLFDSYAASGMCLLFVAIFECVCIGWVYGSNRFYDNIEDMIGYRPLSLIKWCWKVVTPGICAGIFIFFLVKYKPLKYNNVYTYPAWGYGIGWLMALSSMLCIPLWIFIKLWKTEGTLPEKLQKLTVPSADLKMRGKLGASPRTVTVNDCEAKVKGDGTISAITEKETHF

mGAT1 = target: T2, mGAT1 (Mus musculus, UniProt P31648); experiment: [3H]GABA uptake assay in HEK-293 cells stably expressing mGAT1; assay type: cell-based; settings: for IC50: [3H]GABA uptake, read-out: pIC50 ± SEM mGAT1 (converted)
T2 construct: expressed in transfected cells; host or cells: HEK-293

mGAT3 = target: T3, mGAT3 (Mus musculus, UniProt P31649); experiment: [3H]GABA uptake assay in HEK-293 cells stably expressing mGAT3; assay type: cell-based; settings: [3H]GABA uptake; read-out: pIC50 ± SEM mGAT3 (converted)
T3 construct: expressed in transfected cells; host or cells: HEK-293
T3 sequence (P31649 1-602): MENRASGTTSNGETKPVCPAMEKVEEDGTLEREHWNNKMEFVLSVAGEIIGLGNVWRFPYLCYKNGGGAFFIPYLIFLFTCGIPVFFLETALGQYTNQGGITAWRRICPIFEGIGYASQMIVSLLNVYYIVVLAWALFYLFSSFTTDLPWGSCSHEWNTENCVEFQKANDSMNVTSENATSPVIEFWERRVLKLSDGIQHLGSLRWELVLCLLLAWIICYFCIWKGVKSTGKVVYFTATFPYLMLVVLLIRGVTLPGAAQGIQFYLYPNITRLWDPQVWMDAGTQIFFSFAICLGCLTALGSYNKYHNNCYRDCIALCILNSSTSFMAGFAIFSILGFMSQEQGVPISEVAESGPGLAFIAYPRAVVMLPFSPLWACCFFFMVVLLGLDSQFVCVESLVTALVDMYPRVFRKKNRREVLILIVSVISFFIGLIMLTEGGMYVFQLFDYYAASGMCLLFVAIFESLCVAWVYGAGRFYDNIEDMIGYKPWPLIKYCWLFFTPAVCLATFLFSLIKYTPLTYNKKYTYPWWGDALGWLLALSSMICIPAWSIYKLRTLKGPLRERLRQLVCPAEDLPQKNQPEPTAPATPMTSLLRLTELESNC

HEK-293 cells = experiment: HEK-293 cytotoxicity assay (MTS); assay type: cell-based, human; settings: for concentration with significant (p < 0.0001) decrease in HEK-293 cell viability: 72 h of incubation; for concentration of observed antiproliferative effects: summary of HepG2 and HEK-293 assays
Method: Subsequently, a similar study was performed with the HEK-293 cell line.
Hepatotoxicity and cytotoxicity were estimated according to previously described protocols[62] using the hepatoma HepG2 (ATCC HB-8065) and human embryonic kidney HEK-293 (ATCC CRL1573) cell lines, respectively. In brief, cells were seeded in 96-well plates at a density of 0.7 × 10^4 and cultured at 37 °C in an atmosphere containing 5% CO2. Next, the compounds were added and investigated in quadruplicate at concentrations ranging from 0.1 to 100 μM for 72 h. The antiproliferative drug DX was used as the reference. The CellTiter 96 AQueous nonradioactive cell proliferation assay (MTS) purchased from Promega (Madison, WI, USA) was used for the determination of cell viability. The absorbance at 492 nm was measured using an EnSpire microplate reader (PerkinElmer, Waltham, MA, USA).

mGAT2 = target: T4, mGAT2 (Mus musculus, UniProt P31651); experiment: [3H]GABA uptake assay in HEK-293 cells stably expressing mGAT2; assay type: cell-based; settings: [3H]GABA uptake; read-out: pIC50 ± SEM mGAT2 (converted)
T4 construct: expressed in transfected cells; host or cells: HEK-293
T4 sequence (P31651 1-614): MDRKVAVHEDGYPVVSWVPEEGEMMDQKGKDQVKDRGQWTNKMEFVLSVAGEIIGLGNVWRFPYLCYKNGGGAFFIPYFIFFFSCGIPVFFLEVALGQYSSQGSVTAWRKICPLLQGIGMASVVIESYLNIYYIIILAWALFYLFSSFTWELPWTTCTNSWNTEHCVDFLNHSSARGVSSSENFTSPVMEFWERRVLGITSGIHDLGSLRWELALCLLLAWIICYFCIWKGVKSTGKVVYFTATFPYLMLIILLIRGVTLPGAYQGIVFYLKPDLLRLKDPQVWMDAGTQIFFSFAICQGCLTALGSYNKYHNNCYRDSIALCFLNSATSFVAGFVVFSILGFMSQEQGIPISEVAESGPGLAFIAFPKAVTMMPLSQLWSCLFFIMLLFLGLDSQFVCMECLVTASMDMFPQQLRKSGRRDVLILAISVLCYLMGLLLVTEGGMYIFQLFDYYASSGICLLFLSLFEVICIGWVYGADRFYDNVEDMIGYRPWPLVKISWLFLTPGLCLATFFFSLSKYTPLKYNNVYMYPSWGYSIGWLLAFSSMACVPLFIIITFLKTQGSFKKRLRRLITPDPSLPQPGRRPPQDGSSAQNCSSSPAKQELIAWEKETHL

| IC50 (mGAT4) | remaining [3H]GABA uptake mGAT1 (mGAT1; in the presence of 100 μM inhibitor) | IC50 (mGAT3) | IC50 (mGAT2) | IC50 (mGAT1) | Structure (SMILES) | concentration with significant (p < 0.0001) decrease in HEK-293 cell viability (HEK-293 cells) | concentration of observed antiproliferative effects (HEK-293 cells) | safety profile in HEK-293 cells (HEK-293 cells; 72 h, compared with HepG2) |
| --- | --- | --- | --- | --- | --- | --- | --- | --- |
| 4.37 µM | 100 μM: 52% | 6.61 µM | 20.4 µM | – | Cc1ccc(CNC(=O)[C@@H](C[C@@H](C)O)N(C)CCC=C2c3ccccc3CCc3ccccc32)cc1 (relative stereo) [Compound 2RS,4RS-39c, 2-((3-(10,11-Dihydro-5H-dibenzo[a,d][7]annulen-5-ylidene)propyl)(methyl)amino)-4-hydroxy-N-(4-methylbenzyl)pentanamide] | 25 µM | 25 µM | – |
| 20.4 µM | – | 8.51 µM | 3.72 µM | 20 µM | CN(CCON=C(c1ccccc1)c1ccccc1)C(CCN)C(=O)NCc1ccccc1Cl (stereo not drawn) [Compound 50a, 4-Amino-N-[(2-chlorophenyl)methyl]-2-[(2-{[(diphenylmethylidene)amino]oxy}ethyl)(methyl)amino]butanamide] | – | 1 µM | comparable safety profile in HEK-293 and HepG2 cells |
| 9.12 µM | – | 22.9 µM | 27.5 µM | 21.4 µM | CN(CCC=C1c2ccccc2CCc2ccccc21)C(CO)C(=O)NCc1ccccc1 (stereo not drawn) [Compound 56a, N-Benzyl-2-((3-(10,11-dihydro-5H-dibenzo[a,d][7]annulen-5-ylidene)propyl)(methyl)amino)-3-hydroxypropanamide] | 25 µM | 25 µM | – |
